Where two headings read alike, the source gives them in different places.
Assays:
complex organisms = details: in vivo; cited from earlier work
cell culture = details: cited from earlier work
tumor [1] = assay: Antitumor activity of alkylphosphocholines: T/C and median tumor volume after therapy (Example 5); format: in vivo; details: for T/C (quotient of the median tumor volume in the treated and the control group × 100): evaluation after therapy for 5 weeks
From the text: Comparison of the Known Antitumor Active Ingredient Erucylphosphocholine with Active Ingredients of the Invention
Comparison of a compound not of the invention (erucylphosphocholine) with two active ingredients of the invention is shown in Table 1.

tumor [2] = details: evaluation after therapy for 5 weeks, cited from earlier work
[3] = oral administration; cited from earlier work
[4] = rats; cited from earlier work

Row | SMILES | Median tumor volume, 2 weeks later (tumor [1]; dose 42 μmol/kg) | Median tumor volume, End of therapy (tumor [1]; dose 42 μmol/kg) | Median tumor volume, 2 weeks later (tumor [1]; dose 84 μmol/kg) | Median tumor volume, End of therapy (tumor [1]; dose 84 μmol/kg) | Median tumor volume, 2 weeks later (tumor [1]; dose 170 μmol/kg) | Median tumor volume, End of therapy (tumor [1]; dose 170 μmol/kg) | Median tumor volume, 2 weeks later (tumor [1]; dose 256 μmol/kg) | Median tumor volume, End of therapy (tumor [1]; dose 256 μmol/kg) | also measured
1 | CCCCCCCCCCCCCCCCCCOCC(COP(=O)([O-])OCC[N+](C)(C)C)OC (racemic) [ET18-OCH3, 1-O-octadecyl-2-O-methyl-rac-glycero-3-phosphocholine] |  |  |  |  |  |  |  |  | activity in complex organisms (complex organisms): virtually inactive; antineoplastic activity in cell-culture experiments (cell culture): excellent antineoplastic activity
2 | CCCCCCCCCCC/C=C\CCCCCCCCCOP(=O)([O-])OCC[N+](C)(C)C [(Z)-10-Docosenyl-1-PC, (Z)-10-docosenyl-1-phosphocholine] | 4.5 cm^3 | 4.0 cm^3 | 3.4 cm^3 | 1.2 cm^3 | 0.2 cm^3 | 0.2 cm^3 | 0.2 cm^3 | 0.1 cm^3 | T/C (quotient of the median tumor volume in the treated and the control group × 100) (tumor [1]; weekly dose 42 μmol/kg): 9%; T/C (quotient of the median tumor volume in the treated and the control group × 100) (tumor [1]; weekly dose 170 μmol/kg): 0.5%; T/C (quotient of the median tumor volume in the treated and the control group × 100) (tumor [1]; weekly dose 256 μmol/kg): 0.2%
3 | C=CCCCCCCCC/C=C\CCCCCCCCCCOP(=O)([O-])OCC[N+](C)(C)C [(Z)-11,21-Docosadienyl-1-PC, (Z)-11,21-docosadienyl-1-phosphocholine] | 2.5 cm^3 | 1.5 cm^3 | 2.9 cm^3 | 0.9 cm^3 | 0.5 cm^3 | 0.4 cm^3 |  |  | T/C (quotient of the median tumor volume in the treated and the control group × 100) (tumor [1]; weekly dose 42 μmol/kg): 8%; T/C (quotient of the median tumor volume in the treated and the control group × 100) (tumor [1]; weekly dose 170 μmol/kg): 2%
4 | CCCCCCCC/C=C\CCCCCCCCCCCOP(=O)([O-])OCC[N+](C)(C)C [(Z)-12-Heneicosenyl-1-phosphocholine, (Z)-12-heneicosenyl-1-phosphocholine] | 4.5 cm^3 | 3.4 cm^3 | 1.2 cm^3 | 0.3 cm^3 | 0.1 cm^3 | 0.1 cm^3 | 0.8 cm^3 | 0.2 cm^3 | 
5 | CCCCC/C=C\CCCCCCCCCCCCCCCOP(=O)([O-])OCC[N+](C)(C)C [(Z)-16-Docosenyl-1-phosphocholine, (Z)-16-docosenyl-1-phosphocholine] |  | 26.9 cm^3 | 7.6 cm^3 | 2.5 cm^3 | 0.4 cm^3 | 0.2 cm^3 |  |  | 
6 | CCCCCCC/C=C\CCCC/C=C\CCCCCOP(=O)([O-])OCC[N+](C)(C)C [(Z,Z)-6,12-Eicosadienyl-1-PC, (Z,Z)-6,12-eicosadienyl-1-phosphocholine] | 13.9 cm^3 | 10 cm^3 | 13.9 cm^3 | 3.2 cm^3 | 1.9 cm^3 | 0.4 cm^3 | 0 cm^3 | 0 cm^3 | 
7 | CCCCC/C=C\CCCC/C=C\CCCCCCCCCOP(=O)([O-])OCC[N+](C)(C)C [(Z,Z)-10,16-Docosadienyl-1-PC, (Z,Z)-10,16-docosadienyl-1-phosphocholine] | 11.4 cm^3 | 7.5 cm^3 | 0.6 cm^3 | 0.6 cm^3 | 0.7 cm^3 | 0.5 cm^3 |  |  | 
8 | CCCCCCCC/C=C\CCCCCCCCCCCCOP(=O)([O-])OCC[N+](C)(C)C [Erucylphosphocholine, erucylphosphocholine] |  |  |  |  |  |  |  |  | T/C (quotient of the median tumor volume in the treated and the control group × 100) (tumor [2]; weekly dose 90 μmol/kg): 31%; T/C (quotient of the median tumor volume in the treated and the control group × 100) (tumor [2]; weekly dose 180 μmol/kg): 6%; T/C (quotient of the median tumor volume in the treated and the control group × 100) (tumor [2]; weekly dose 360 μmol/kg): <0.1%
9 | CCCCCCCCCCCCCCCCOP(=O)([O-])OCC[N+](C)(C)C [HePC, hexadecylphosphocholine] |  |  |  |  |  |  |  |  | toxicity in clinical studies [3]: toxicities in the gastrointestinal tract; adverse effect of direct intravenous administration of a solution [4]: thrombophlebitis

Source: patent publication US8129552B2, “Phospholipids with unsaturated alkyl and acyl chains” (Max-Planck-Gesellschaft zur Forderung der Wissenschaften …, priority 1998, dated 2012)
